{"source": "patent US6362220B1", "about": "“Anticonvulsant derivatives useful in reducing blood glucose levels” (Ortho-McNeil Pharmaceutical, Inc., priority 1999, dated 2002)", "key": {"[1]": {"test": "retrospective analysis of long term open-label studies in epilepsy: blood glucose", "assay_type": "in vivo, human", "settings": "14 epilepsy patients, overweight (>100 kg) with high blood glucose (>115 mg/dl); study mean daily dosage 622 mg/day, mean duration 689 days"}, "[2]": {"settings": "human epilepsy; adjunctive therapy or monotherapy; cited from earlier work"}, "[3]": {"settings": "several rodent models; cited from earlier work"}, "[4]": {"settings": "animal model of kindled epilepsy; cited from earlier work"}}, "data": [{"molecule": "CC1(C)O[C@@H]2[C@@H](CO[C@@]3(COS(N)(=O)=O)OC(C)(C)O[C@@H]23)O1", "note": "[topiramate, 2,3:4,5-bis-O-(1-methylethylidene)-β-D-fructopyranose sulfamate]", "values": [{"measurement": "reduction in blood glucose", "setting": "[1]", "result": 5.8, "unit": "%"}, {"measurement": "efficacy in treating seizures in clinical trials", "setting": "[2]", "result": "effective as adjunctive therapy or as monotherapy"}, {"measurement": "seizure block in rodent models of epilepsy", "setting": "[3]", "result": "effectively block seizures"}, {"measurement": "seizure block in kindled epilepsy model", "setting": "[4]", "result": "effectively block seizures"}]}]}
